According to US5039806A, “Novel pharmacologically active compound pyridyl methylsulfinyl benzimidazole” (AB Hassle, priority 1983, dated 1991):

Test system: gastric acid secretion in conscious dog
Assay: Inhibiting effect in vivo on gastric acid secretion in conscious dog (gastric fistula, histamine-stimulated)
Settings: intraduodenal (I.D.) dose 8 μmol/kg, free base in 0.5% Methocel
Protocol: II. Inhibiting effect in vivo on gastric acid secretion in conscious dog
Chronic gastric fistula dogs were used. These dogs have been surgically provided with a gastric cannula in the stomach and a duodenal fistula used for direct intraduodenal administration of test compounds. Following a 4 weeks' recovery period after surgery, tests were performed once a week on each dog. Food and water were withdrawn 18 hours before each test.
Gastric acid secretion was induced by continuous infusion of histamine at individual doses (100-300 nmol/kg,h), resulting in submaximal secretion of gastric acid. At least 2 hours after onset of stimulation, when the gastric acid secretion had reached a steady level, the test compounds in the form of free base suspended in 0.5% Methocel® (90 HG, 15.000, Dow Chem. Corp.), were given intraduodenally at doses from 1 to 8 μmol/kg. The gastric juice was collected by free flow from the gastric cannula in consecutive 30 minutes samples for 3 hours. The samples were titrated to pH 7.0 with 0.1 M NaOH using a Radiometer automatic titrator and the acid output was calculated.
The percent inhibition of acid secretion was calculated by comparing in each dog the acid output in the tests to the acid output in control tests when only the vehicle was given.

Row | Compound | % INHIB (peak inhibitory effect on acid secretion) [%]
1 | COc1c(C)cnc(CSc2nc3cc(SC)ccc3[nH]2)c1C [Example 109] | 60
2 | COc1c(C)cnc(CSc2nc3cc4ccccc4cc3[nH]2)c1C [Example 84] | 85
